Reference: ChEMBL document CHEMBL3352025, “Evaluation of the neuroprotective activity of stansin 6, a resin glycoside from Ipomoea stans” (Bioorg Med Chem Lett, 2014)
Activity calls are given as the source filed them. No cut-off for these calls is given here.

Columns and labels:
[1] = tested on: Rattus norvegicus; experiment: Toxicity in rat assessed as convulsions at 10 to 80 mg/kg, ip; assay type: organism-based; design: dose 10-80 mg/kg, route intraperitoneal; settings: in vivo
[2] = tested on: Rattus norvegicus; experiment: Toxicity in rat assessed as hippocampal damage at 10 to 80 mg/kg, ip; assay type: organism-based, Hippocampus; design: dose 10-80 mg/kg, route intraperitoneal; settings: in vivo
[3] = tested on: Rattus norvegicus; experiment: Reduction in TNFalpha in kainic acid-induced rat brain at 10 mg/kg, ip; assay type: functional, organism-based; design: dose 10 mg/kg
[4] = tested on: Rattus norvegicus; experiment: Neuroprotective activity in kainic acid-induced rat assessed as decrease in hippocampal neuronal loss at 10 mg/kg, ip; assay type: functional, organism-based; design: dose 10 mg/kg
[5] = tested on: Rattus norvegicus; experiment: Anticonvulsant activity in rat assessed as protection against kainic acid-induced death at 10 mg/kg, ip; assay type: functional, organism-based; design: dose 10 mg/kg
[6] = tested on: Rattus norvegicus; experiment: Toxicity in rat assessed as seizures at 10 to 80 mg/kg, ip; assay type: organism-based; design: dose 10-80 mg/kg, route intraperitoneal; settings: in vivo
[7] = tested on: Rattus norvegicus; experiment: Reduction in IL-1beta in kainic acid-induced rat brain at 10 mg/kg, ip; assay type: functional, organism-based; design: dose 10 mg/kg
[8] = tested on: Rattus norvegicus; experiment: Anticonvulsant activity in rat assessed as protection against kainic acid-induced seizures in denate gyrus at 10 mg/kg, ip; assay type: functional, organism-based; design: dose 10 mg/kg
[9] = tested on: Rattus norvegicus; experiment: Decrease in astrocyte reactivity in kainic acid-induced rat brain inCA3 region at 10 mg/kg, ip by GFAP staining; assay type: functional, organism-based; design: dose 10 mg/kg
[10] = tested on: Rattus norvegicus; experiment: Reduction in degeneration pattern in kainic acid-induced rat brain inCA3 region at 10 mg/kg, ip by GFAP staining; assay type: functional, organism-based; design: dose 10 mg/kg
[11] = tested on: Rattus norvegicus; experiment: Anticonvulsant activity in rat assessed as protection against kainic acid-induced convulsions at 10 mg/kg, ip; assay type: functional, organism-based; design: dose 10 mg/kg

In the case of `CCCCC[C@H]1CCCCCCCCCC(=O)O[C@@H]2[C@@H](O[C@@H]3O[C@H](C)[C@@H](OC(=O)[C@@H](C)CC)[C@H](O)[C@H]3O)[C@H](C)O[C@@H](O[C@H]3[C@H](O[C@H]4[C@H](O1)O[C@H](C)[C@@H](O)[C@@H]4O)O[C@H](COC(=O)[C@H](C)[C@@H](C)O)[C@@H](O)[C@@H]3O)[C@@H]2OC(=O)[C@@H](C)CC` [ORIZABIN XX], the Activity [1] is reported as “Non-toxic”, the Activity [2] is reported as “Non-toxic” and the Activity [3] is reported as “Active”. For the same compound, the Activity [4] was “Active”, the Activity [5] was “Active” and the Activity [6] was “Non-toxic”. For the same compound, the Activity [7] was “Active”, the Activity [8] was “Active” and the Activity [9] was “Active”. The Activity [10] was “Active” and the inhibition [11] was “Active”.
